Laboratory results published in patent US20130244879A1, “USE OF LIPO-CHITOOLIGOSACCHARIDES TO INITIATE EARLY FLOWERING AND FRUIT DEVELOPMENT IN PLANTS AND RELATED METHODS AND COMPOSITIONS” (NOVOZYMES BIOLOGICALS HOLDING A/S, priority 2003, published 2013).

Assays:
pepper (cv. Camelot) = experiment: Experiment 7: foliar application of LCO on pepper; assay type: in vivo
Description: 13 pepper seedlings (cv. Camelot, 6-leaf stage) were transplanted in 2 rows per plot (3.5×2.5M^2). The rows were covered with 65 cm width black plastic mulch one week before transplanting. Fertilizer (10-52-10) solution of 250 ppm was applied into the planting hole through the mulch when transplanting (approx. 250 ml per plant). The drip irrigation system was set to twice a week and 4 hours each time, depending on the soil moisture. Plants were sprayed with LCO 14 days after transplanting (5 ml/plant) and 27 days after transplanting (50 ml/plant).

grain corn (cv. DK376) = experiment: Experiment 9: effect of LCO on grain corn yield; assay type: in vivo
Excerpt: Fertilizer (36-12-18) was applied to the corn field at a rate of 500 kg/ha before seeding. A machine planter was employed to plant the grain (cv. DK376, HU2650, Fludioxnil coated). To protect corn ears from bird damage, grain corn ears in the middle two rows were covered with plastic nets after silking. LCO was applied to corn plants at a rate of 200 L/ha for the first application 40 days after planting and at 400 L/ha for the second application 58 days after planting. The two protected middle rows of plants were harvested by a combine 152 days after planting. […] The total grain yield increased for all but the 10^−8M double application.

tomato crop = experiment: Trial 3: summer field trial, foliar LCO on tomato yield; assay type: in vivo; settings: for advanced fruiting over control: single application
Description: An investigation was conducted to examine whether foliar applications of LCO led to increased yield in tomato crop production. To determine concentrations or strengths to be applicable, testing was conducted with a logarithmic increase in strength from 1 nanogram (ng) to 1000 ng/plant sprayed once, and on half, twice. The trial results are presented in the following FIGS. 11-13 and Tables 6 and 7. The parameter of interest was ripened fruit which was harvested 2 or 3 times a week, recording each time, both fruit weight and number of fruit per set of replicates. It was known that fruit arise from pollinated flowers and that an increase in the one leads to the other. FIG. 11 records, cumulative harvested (red) fruit per treatment. For the single LCO application it will be seen that the 10 and 100 ng/plant treatments have advanced fruiting by some 10 days over control (horizontal separation in weeks). That advance has allowed the plant to bear and ripen more fruit over the season for these treatments (see FIG. 11 note height over control and Tables 6 and 7 for actual weights and numbers harvested). Table 6 and FIG. 12 record harvested weight and numbers of ripened fruit over season and it can be seen that the average weight of the tomatoes is not different between treatments and control. Thus the increase in harvested weight was due to an increase in numbers harvested, in agreement with actual enumeration.

Marigolds = experiment: Experiment 12: LCO application on marigolds; assay type: in vivo, Marigold; settings: best treatments
Description: Marigolds were planted in 32-cell flat and LCO was applied foliarly to plants 4 weeks after sowing (4 flats/treatment, 1 ml/plant applied containing various levels of LCO). Data collection started from the first flower appearing.

Arabidopsis thaliana = experiment: Experiments 3 and 4: effect of LCO on flowering in Arabidopsis thaliana; assay type: in vivo; settings: vs surfactant treated plants
Description: Two experiments were performed to investigate effect of LCO on plant's flowering using experimental model plant Arabidopsis thaliana. Plants were treated with various a range of LCO concentrations. […] The LCO treated plants reached over 80% of plants with open flowers 4 days earlier than control, surfactant treated plants. LCO induced faster and more uniform flowering.

[1] = 1 ng LCO per plant, applied once
[2] = 1 ng LCO per plant, applied twice
[3] = 10 ng LCO per plant, applied once
[4] = 10 ng LCO per plant, applied twice
[5] = 100 ng LCO per plant, applied once
[6] = 100 ng LCO per plant, applied twice
[7] = 1000 ng LCO per plant, applied once
[8] = 1000 ng LCO per plant, applied twice
[9] = single application of 10 ng LCO/plant

In the case of Lipo-chitooligosaccharides [LCO], the “First 4 wk yield, Fruit/plant” value (pepper (cv. Camelot); 14 ng/plant) is reported as 5.79ab Fruit/plant, the “First 4 wk yield, gram/plant” value (pepper (cv. Camelot); 14 ng/plant) is reported as 784.91ab gram/plant and the “First 4 wk yield, Fruit/plant” value (pepper (cv. Camelot); 50 ng/plant) is reported as 5.83ab Fruit/plant. For the same substance, the “First 4 wk yield, gram/plant” value (pepper (cv. Camelot); 50 ng/plant) was 833.79ab gram/plant, the “First 4 wk yield, Fruit/plant” value (pepper (cv. Camelot); 75 ng/plant) was 5.77ab Fruit/plant and the “First 4 wk yield, gram/plant” value (pepper (cv. Camelot); 75 ng/plant) was 835.26ab gram/plant. The “First 4 wk yield, Fruit/plant” value (pepper (cv. Camelot); 100 ng/plant) was 4.87b Fruit/plant, the “First 4 wk yield, gram/plant” value (pepper (cv. Camelot); 100 ng/plant) was 694.48b gram/plant and the “First 4 wk yield, Fruit/plant” value (pepper (cv. Camelot); 141 ng/plant) was 6.48a Fruit/plant. For the same substance, the “First 4 wk yield, gram/plant” value (pepper (cv. Camelot); 141 ng/plant) was 934.83a gram/plant, the “First 4 wk yield, Fruit/plant” value (pepper (cv. Camelot); 282 ng/plant) was 5.02ab Fruit/plant and the “First 4 wk yield, gram/plant” value (pepper (cv. Camelot); 282 ng/plant) was 702.87b gram/plant. The best dose (pepper (cv. Camelot); 5 ml of 2×10^−8M) was 141 ng/plant, the “increase of fruit number in the early stages” value (pepper (cv. Camelot); foliar application) was “approximately 1 fruit per plant” and the “Dry Yield (kg/2 rows)” value (grain corn (cv. DK376); 10^−7M once) was 3.44 kg/2 rows. The “Dry yield (kg/ha)” value (grain corn (cv. DK376); 10^−7M once) was 5730.6 kg/ha, the Ears/2 rows (grain corn (cv. DK376); 10^−7M once) was 37.25ab and the “Fresh Yield (kg/2 rows)” value (grain corn (cv. DK376); 10^−7M once) was 4.40 kg/2 rows. For the same substance, the “Fresh Yield (kg/ha)” value (grain corn (cv. DK376); 10^−7M once) was 7333.3 kg/ha, the “Dry Yield (kg/2 rows)” value (grain corn (cv. DK376); 10^−7M twice) was 3.96 kg/2 rows and the “Dry yield (kg/ha)” value (grain corn (cv. DK376); 10^−7M twice) was 6606.5 kg/ha. For the same substance, the Ears/2 rows (grain corn (cv. DK376); 10^−7M twice) was 40.00a, the “Fresh Yield (kg/2 rows)” value (grain corn (cv. DK376); 10^−7M twice) was 5.03 kg/2 rows and the “Fresh Yield (kg/ha)” value (grain corn (cv. DK376); 10^−7M twice) was 8383.3 kg/ha. The “Dry Yield (kg/2 rows)” value (grain corn (cv. DK376); 10^−8M once) was 3.62 kg/2 rows, the “Dry yield (kg/ha)” value (grain corn (cv. DK376); 10^−8M once) was 6040.4 kg/ha and the Ears/2 rows (grain corn (cv. DK376); 10^−8M once) was 37.00ab. For the same substance, the “Fresh Yield (kg/2 rows)” value (grain corn (cv. DK376); 10^−8M once) was 4.57 kg/2 rows, the “Fresh Yield (kg/ha)” value (grain corn (cv. DK376); 10^−8M once) was 7616.7 kg/ha and the “Dry Yield (kg/2 rows)” value (grain corn (cv. DK376); 10^−8M twice) was 3.23 kg/2 rows. For the same substance, the “Dry yield (kg/ha)” value (grain corn (cv. DK376); 10^−8M twice) was 5387.1 kg/ha, the Ears/2 rows (grain corn (cv. DK376); 10^−8M twice) was 32.25bc and the “Fresh Yield (kg/2 rows)” value (grain corn (cv. DK376); 10^−8M twice) was 4.12 kg/2 rows. The “Fresh Yield (kg/ha)” value (grain corn (cv. DK376); 10^−8M twice) was 6866.7 kg/ha, the “Dry Yield (kg/2 rows)” value (grain corn (cv. DK376); 10^−9M once) was 3.77 kg/2 rows and the “Dry yield (kg/ha)” value (grain corn (cv. DK376); 10^−9M once) was 6275.6 kg/ha. For the same substance, the Ears/2 rows (grain corn (cv. DK376); 10^−9M once) was 39.00ab, the “Fresh Yield (kg/2 rows)” value (grain corn (cv. DK376); 10^−9M once) was 4.75 kg/2 rows and the “Fresh Yield (kg/ha)” value (grain corn (cv. DK376); 10^−9M once) was 7916.7 kg/ha. For the same substance, the “Dry Yield (kg/2 rows)” value (grain corn (cv. DK376); 10^−9M twice) was 3.57 kg/2 rows, the “Dry yield (kg/ha)” value (grain corn (cv. DK376); 10^−9M twice) was 5953.5 kg/ha and the Ears/2 rows (grain corn (cv. DK376); 10^−9M twice) was 37.25ab. For the same substance, the “Fresh Yield (kg/2 rows)” value (grain corn (cv. DK376); 10^−9M twice) was 4.55 kg/2 rows, the “Fresh Yield (kg/ha)” value (grain corn (cv. DK376); 10^−9M twice) was 7583.3 kg/ha and the “Ear number over untreated control” value (grain corn (cv. DK376); all treatments except the 10^−8M double application) was “significantly increased”. For the same substance, the “Increase in No. of Tomatoes from 1 to 2 applications” value (“Increase in No. of Tomatoes” below) (tomato crop; 1 ng LCO per plant) was 21, the “Yield Increase for 2nd Application” value (tomato crop; 1 ng LCO per plant) was 0.00 Kg per plant and the “Cumulative Harvest to Sept 23. (24 plant Average)” value (shortened to “Cumulative Harvest”) (tomato crop; [1]) was “Not as good as Control”. For the same substance, the “Cumulative Yield (kg) to Sept 23. Total weight for 24 plants” value (from here on “Cumulative Yield (kg)”) (tomato crop; [1]) was 57.7200 kg, the “Total No. of Tomatoes per treatment” value (tomato crop; [1]) was 300 and the “Yield increase over Control” value (tomato crop; [1]) was 0.0000 Kg per plant. For the same substance, the “Cumulative Harvest” value (tomato crop; [2]) was “Not as good as Control”, the “Cumulative Yield (kg)” value (tomato crop; [2]) was 63.8760 kg and the “Total No. of Tomatoes per treatment” value (tomato crop; [2]) was 321. For the same substance, the “Increase in No. of Tomatoes” value (tomato crop; 10 ng LCO per plant) was 11, the “Yield Increase for 2nd Application” value (tomato crop; 10 ng LCO per plant) was 0.08 Kg per plant and the “Cumulative Harvest” value (tomato crop; [3]) was 3.0093 Kg per plant. The “Cumulative Yield (kg)” value (tomato crop; [3]) was 72.2240 kg, the “Percent Yield inc. over Control” value (tomato crop; [3]) was 17.7% and the “Total No. of Tomatoes per treatment” value (tomato crop; [3]) was 363. The “Yield increase over Control” value (tomato crop; [3]) was 0.4517 Kg per plant, the “Cumulative Harvest” value (tomato crop; [4]) was 3.0905 Kg per plant and the “Cumulative Yield (kg)” value (tomato crop; [4]) was 74.1720 kg. The “Percent Yield inc. over Control” value (tomato crop; [4]) was 12.6%, the “Total No. of Tomatoes per treatment” value (tomato crop; [4]) was 374 and the “Yield increase over Control” value (tomato crop; [4]) was 0.3452 Kg per plant. The “Increase in No. of Tomatoes” value (tomato crop; 100 ng LCO per plant) was −8, the “Yield Increase for 2nd Application” value (tomato crop; 100 ng LCO per plant) was 0.06 Kg per plant and the “Cumulative Harvest” value (tomato crop; [5]) was 2.7280 Kg per plant. For the same substance, the “Cumulative Yield (kg)” value (tomato crop; [5]) was 65.4720 kg, the “Percent Yield inc. over Control” value (tomato crop; [5]) was 6.7% and the “Total No. of Tomatoes per treatment” value (tomato crop; [5]) was 351. The “Yield increase over Control” value (tomato crop; [5]) was 0.1703 Kg per plant, the “Cumulative Harvest” value (tomato crop; [6]) was 2.7917 Kg per plant and the “Cumulative Yield (kg)” value (tomato crop; [6]) was 67.0000 kg. For the same substance, the “Percent Yield inc. over Control” value (tomato crop; [6]) was 1.7%, the “Total No. of Tomatoes per treatment” value (tomato crop; [6]) was 343 and the “Yield increase over Control” value (tomato crop; [6]) was 0.0463 Kg per plant. For the same substance, the “Increase in No. of Tomatoes” value (tomato crop; 1000 ng LCO per plant) was 35, the “Yield Increase for 2nd Application” value (tomato crop; 1000 ng LCO per plant) was 0.35 Kg per plant and the “Cumulative Harvest” value (tomato crop; [7]) was 2.6115 Kg per plant. The “Cumulative Yield (kg)” value (tomato crop; [7]) was 62.6760 kg, the “Percent Yield inc. over Control” value (tomato crop; [7]) was 2.1% and the “Total No. of Tomatoes per treatment” value (tomato crop; [7]) was 326. For the same substance, the “Yield increase over Control” value (tomato crop; [7]) was 0.0538 Kg per plant, the “Cumulative Harvest” value (tomato crop; [8]) was 2.9588 Kg per plant and the “Cumulative Yield (kg)” value (tomato crop; [8]) was 71.0120 kg. For the same substance, the “Percent Yield inc. over Control” value (tomato crop; [8]) was 7.8%, the “Total No. of Tomatoes per treatment” value (tomato crop; [8]) was 361 and the “Yield increase over Control” value (tomato crop; [8]) was 0.2135 Kg per plant. For the same substance, the “increase in numbers of tomatoes” value (tomato crop; [9]) was about 20%, the “yield increase over the season” value (tomato crop; [9]) was 17% and the “advanced fruiting over control” value (tomato crop; 10 ng/plant) was about 10 days. For the same substance, the “advanced fruiting over control” value (tomato crop; 100 ng/plant) was about 10 days, the advanced flowering (Marigolds) was 2 days and the “increase in number of flowers at 25 days” value (Marigolds) was 8%. For the same substance, the “reached over 80% of plants with open flowers earlier than control” value (Arabidopsis thaliana) was 4 days.
